Test [1] relates to NCI-H1975 cells (EGFR T790M L858R). Briefly: EGFR-SOS cellular inhibition assay (CellTiter-Glo, 3D). The format is cell-based. As to conditions: Homo sapiens. Background: Cellular ATP, detected with luciferase, serves as a proxy for viable cell number.
The target of another test is SOS1 (Homo sapiens (Human), UniProt Q07889). The test is described as follows: Ras-SOS interaction assay (HTRF). It counts as biochemical. For orientation: In TR-FRET formats the signal depends on donor and acceptor labels being close together.
SOS1, sequence (Q07889 564-1049): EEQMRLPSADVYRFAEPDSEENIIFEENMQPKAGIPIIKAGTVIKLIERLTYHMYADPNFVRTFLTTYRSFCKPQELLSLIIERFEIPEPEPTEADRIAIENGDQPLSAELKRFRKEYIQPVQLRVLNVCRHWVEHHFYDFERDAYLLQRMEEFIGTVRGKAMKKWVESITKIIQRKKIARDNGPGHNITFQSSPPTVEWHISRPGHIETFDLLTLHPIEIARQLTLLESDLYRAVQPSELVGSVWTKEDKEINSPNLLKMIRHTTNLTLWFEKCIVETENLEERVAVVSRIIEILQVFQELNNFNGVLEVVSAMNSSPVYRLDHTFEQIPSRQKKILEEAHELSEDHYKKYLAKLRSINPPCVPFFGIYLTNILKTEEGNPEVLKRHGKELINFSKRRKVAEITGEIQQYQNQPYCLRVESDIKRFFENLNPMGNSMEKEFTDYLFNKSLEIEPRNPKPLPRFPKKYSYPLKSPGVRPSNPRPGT
Test [2] relates to MIA PaCa-2 cells (K-Ras G12C). The test is described as follows: Ras-SOS cellular growth inhibition assay (CellTiter-Glo, 3D). The format is cell-based. As to conditions: Homo sapiens. Put shortly:
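Growth read by CellTiter-Glo luminescence about 5 days after dosing with 3-fold dilutions (9 points), added one day post-seeding. Cells: MIA PaCa-2, 3D culture on ultra-low-attachment surface, medium DMEM/Ham's F12 plus 10% FCS and 2.5% horse serum; IC50 by four-parameter fit.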

Where [3] appears, read: 120 h, NCI-H1975, 3D proliferation, about 5 days, read-out: Bio-Cell-Prolif-3D (H1975 IC50).
Where [4] appears, read: K-RasG13D utilized, read-out: IC50 inhibition of SOS.
Where [5] appears, read: MIA PaCa-2, 120 h, MIA PaCa-2, 3D proliferation, about 5 days, read-out: Bio-Cell-Prolif-3D (MiaPaca2 IC50).
The mark [6] stands for this setting: NCI-H1975, EGFR T790M L858R, read-out: IC50 in inhibiting growth of NCI-H1975 cell line.
Where [7] appears, read: K-RasG13D, read-out: IC50 value against SOS1.
[8] abbreviates: MIA PaCa-2, MIA PaCa-2, read-out: IC50 in inhibiting MIA PaCa-2 cell growth.

Structures are written as SMILES. Where two headings read alike, the source gives them in different places.

Usually IC50 stands for the concentration needed to halve the response being measured.

For the compound `COc1nc2nc(C)nc(N[C@H](C)c3cccc(C(F)F)c3F)c2cc1N1CCNCC1` [Compound 110, (R)-N-(1-(3-(difluoromethyl)-2-fluorophenyl)ethyl)-7-methoxy-2-methyl-6-(piperazin-1-yl)pyrido[2,3-d]pyrimidin-4-amine], the values for the IC50 (in test [1] (setting [3]); on SOS1 (setting [4]); in test [2] (setting [5])) were no more than 1000 nM, less than 100 nM and no more than 1000 nM, respectively.
On to `Cc1nc(N[C@H](C)c2cccc(C(F)(F)F)c2F)c2cc(C3CCS(=O)(=O)CC3)c(OC3COC3)nc2n1` [Compound 247, (R)-4-(4-((1-(2-fluoro-3-(trifluoromethyl)phenyl)ethyl)amino)-2-methyl-7-(oxetan-3-yloxy)pyrido[2,3-d]pyrimidin-6-yl)tetrahydro-2H-thiopyran 1,1-dioxide], for which the IC50 in test [1] (setting [3]) is no more than 1000 nM; in test [1] (setting [6]), less than 500 nM; on SOS1 (setting [4]), less than 100 nM; at SOS1 (setting [7]) it was less than 50 nM; in test [2] (setting [5]), no more than 1000 nM; in test [2] (setting [8]), less than 500 nM.
For the compound `Cc1nc(N[C@H](C)c2cccc(C(F)F)c2F)c2cc(N3CCN(C)CC3)c(OC3COC3)nc2n1` [Compound 411, (R)-N-(1-(3-(difluoromethyl)-2-fluorophenyl)ethyl)-2-methyl-6-(4-methylpiperazin-1-yl)-7-(oxetan-3-yloxy)pyrido[2,3-d]pyrimidin-4-amine], the IC50 in test [1] (setting [3]) was no more than 1000 nM; in test [1] (setting [6]) it was less than 500 nM; at SOS1 (setting [4]), less than 100 nM; on SOS1 (setting [7]), less than 50 nM; in test [2] (setting [5]), no more than 1000 nM; in test [2] (setting [8]) it was less than 500 nM.
For `CCN1CCN(c2cc3c(N[C@H](C)c4cccc(C(F)F)c4F)nc(C)nc3nc2OCCOC)CC1` [Compound 314, (R)-N-(1-(3-(difluoromethyl)-2-fluorophenyl)ethyl)-6-(4-ethylpiperazin-1-yl)-7-(2-methoxyethoxy)-2-methylpyrido[2,3-d] pyrimidin-4-amine], the IC50 is no more than 1000 nM in test [1] (setting [3]); less than 100 nM at SOS1 (setting [4]); less than 50 nM on SOS1 (setting [7]); no more than 1000 nM in test [2] (setting [5]); less than 500 nM in test [2] (setting [8]).
As to `COc1nc2nc(C)nc(N[C@H](C)c3cccc(C(F)(F)C4CN(C)C4)c3)c2cc1N1CCS(=O)(=O)CC1` [Compound 272, (R)-4-(4-((1-(3-(difluoro(1-methylazetidin-3-yl)methyl)phenyl)ethyl)amino)-7-methoxy-2-methylpyrido[2,3-d]pyrimidin-6-yl)thiomorpholine 1,1-dioxide], the IC50 in test [1] (setting [3]) is no more than 1000 nM; in test [1] (setting [6]), less than 500 nM; on SOS1 (setting [7]) it was less than 50 nM; in test [2] (setting [5]), no more than 1000 nM.
As for `Cc1nc(N[C@H](C)c2cccc(C(F)F)c2F)c2cc(C3(C#N)CC3)c(O[C@H]3CCOC3)nc2n1` [Compound 297, 1-(4-(((R)-1-(3-(difluoromethyl)-2-fluorophenyl)ethyl)amino)-2-methyl-7-(((S)-tetrahydrofuran-3-yl)oxy)pyrido[2,3-d]pyrimidin-6-yl)cyclopropane-1-carbonitrile], the IC50 in test [1] (setting [3]) is no more than 1000 nM; in test [1] (setting [6]), less than 500 nM; at SOS1 (setting [7]), less than 50 nM; in test [2] (setting [5]), 1000 to 10000 nM.
Consider `COc1nc2ncnc(N[C@H](C)c3cccc(C(F)(F)C4CN(C(C)C)C4)c3F)c2cc1C1CCS(=O)(=O)CC1` [Compound 283, (R)-4-(4-((1-(3-(difluoro(1-isopropylazetidin-3-yl)methyl)-2-fluorophenyl)ethyl)amino)-7-methoxypyrido[2,3-d]pyrimidin-6-yl)tetrahydro-2H-thiopyran-1,1-dioxide], for which the IC50 in test [1] (setting [3]) was no more than 1000 nM; in test [1] (setting [6]), less than 500 nM; on SOS1 (setting [4]), less than 100 nM; in test [2] (setting [5]), no more than 1000 nM; in test [2] (setting [8]), less than 500 nM.
In the case of `COc1nc2nc(C)nc(N[C@H](C)c3cccc(C(F)(F)CO)c3)c2cc1C1(C#N)CC1` [Compound 179, (R)-1-(4-((1-(3-(1,1-difluoro-2-hydroxyethyl)phenyl)ethyl)amino)-7-methoxy-2-methylpyrido[2,3-d]pyrimidin-6-yl)cyclopropane-1-carbonitrile], the IC50 in test [1] (setting [3]) was no more than 1000 nM; in test [1] (setting [6]), less than 500 nM; at SOS1 (setting [4]), less than 100 nM; at SOS1 (setting [7]), less than 50 nM; in test [2] (setting [5]), no more than 1000 nM; in test [2] (setting [8]) it was less than 500 nM.
`CNc1nc2nc(C)nc(N[C@H](C)c3cccc(C(F)F)c3F)c2cc1C1CCS(=O)(=O)CC1` [Compound 136, (R)-4-(4-((1-(3-(difluoromethyl)-2-fluorophenyl)ethyl)amino)-2-methyl-7-(methylamino)pyrido[2,3-d]pyrimidin-6-yl)tetrahydro-2H-thiopyran 1,1-dioxide]: the IC50 in test [1] (setting [3]) was no more than 1000 nM; in test [1] (setting [6]) it was less than 500 nM; at SOS1 (setting [4]), less than 100 nM; at SOS1 (setting [7]), less than 50 nM; in test [2] (setting [5]) it was no more than 1000 nM; in test [2] (setting [8]), less than 500 nM.
For `COc1nc2nc(C)nc(N[C@H](C)c3cccc(C(C)(F)F)c3F)c2cc1N1CCS(=O)(=O)CC1` [Compound 215, (R)-4-(4-((1-(3-(1,1-difluoroethyl)-2-fluorophenyl)ethyl)amino)-7-methoxy-2-methylpyrido[2,3-d]pyrimidin-6-yl)thiomorpholine 1,1-dioxide], the IC50 in test [1] (setting [3]) is no more than 1000 nM; in test [1] (setting [6]), less than 500 nM; on SOS1 (setting [4]) it was less than 100 nM; at SOS1 (setting [7]), less than 50 nM; in test [2] (setting [5]) it was no more than 1000 nM; in test [2] (setting [8]) it was less than 500 nM.
For the compound `Cc1nc(N[C@H](C)c2cccc(C(F)F)c2F)c2cc(C3(C#N)CC3)c(N3CCN(C)CC3)nc2n1` [Compound 295, (R)-1-(4-((1-(3-(difluoromethyl)-2-fluorophenyl)ethyl)amino)-2-methyl-7-(4-methylpiperazin-1-yl)pyrido[2,3-d]pyrimidin-6-yl)cyclopropanecarbonitrile], the IC50 is no more than 1000 nM in test [1] (setting [3]); less than 500 nM in test [1] (setting [6]); less than 100 nM at SOS1 (setting [4]); less than 50 nM at SOS1 (setting [7]); no more than 1000 nM in test [2] (setting [5]); less than 500 nM in test [2] (setting [8]).
`COc1nc2nc(C)nc(N[C@H](C)c3cccc(C(F)F)c3F)c2cc1S(=O)(=O)C1CCN(C)CC1` [Compound 133, (R)-N-(1-(3-(difluoromethyl)-2-fluorophenyl)ethyl)-7-methoxy-2-methyl-6-((1-methylpiperidin-4-yl)sulfonyl)pyrido[2,3-d]pyrimidin-4-amine]: the IC50 in test [1] (setting [3]) was no more than 1000 nM; in test [1] (setting [6]), less than 500 nM; at SOS1 (setting [4]), less than 100 nM; on SOS1 (setting [7]), less than 50 nM; in test [2] (setting [5]), no more than 1000 nM; in test [2] (setting [8]), less than 500 nM.
On to `COc1nc2nc(C)nc(N[C@H](C)c3cccc(C(F)(F)C4CCN(C(C)C)CC4)c3)c2cc1N1CCN(C(C)C)CC1` [Compound 418, (R)—N-(1-(3-(difluoro(1-isopropylpiperidin-4-yl)methyl)phenyl)ethyl)-6-(4-isopropylpiperazin-1-yl)-7-methoxy-2-methylpyrido[2,3-d]pyrimidin-4-amine], for which the IC50 in test [1] (setting [3]) is no more than 1000 nM; in test [1] (setting [6]), less than 500 nM; at SOS1 (setting [4]), less than 100 nM; on SOS1 (setting [7]) it was less than 50 nM; in test [2] (setting [5]), no more than 1000 nM; in test [2] (setting [8]) it was less than 500 nM.
Take `CCN1CCN(c2cc3c(N[C@H](C)c4cccc(C(F)F)c4F)nc(C)nc3nc2OCCN(C)C)CC1` [Compound 255, (R)-N-(1-(3-(difluoromethyl)-2-fluorophenyl)ethyl)-7-(2-(dimethylamino)ethoxy)-6-(4-ethylpiperazin-1-yl)-2-methylpyrido[2,3-d] pyrimidin-4-amine]: the IC50 was no more than 1000 nM in test [1] (setting [3]), less than 100 nM on SOS1 (setting [4]), less than 50 nM on SOS1 (setting [7]) and 1000 to 10000 nM in test [2] (setting [5]).
As to `COc1nc2nc(C)nc(N[C@H](C)c3cccc(C(F)(F)C4(O)CC4)c3F)c2cc1N1CCN(C(C)C)CC1` [Compound 209, (R)-1-(difluoro(2-fluoro-3-(1-((6-(4-isopropylpiperazin-1-yl)-7-methoxy-2-methylpyrido[2,3-d]pyrimidin-4-yl)amino)ethyl)phenyl)methyl)cyclopropan-1-ol], the IC50 in test [1] (setting [3]) is no more than 1000 nM; in test [1] (setting [6]) it was less than 500 nM; at SOS1 (setting [4]) it was less than 100 nM; on SOS1 (setting [7]), less than 50 nM; in test [2] (setting [5]), no more than 1000 nM; in test [2] (setting [8]), less than 500 nM.
As to `COc1nc2nc(C)nc(N[C@H](C)c3cccc(C(F)(F)F)c3F)c2cc1C1CCN(C(=O)C2CN(C)CCO2)CC1` (stereo partly drawn) [Compound 167, (4-(4-(((R)-1-(2-fluoro-3-(trifluoromethyl)phenyl)ethyl)amino)-7-methoxy-2-methylpyrido[2,3-d]pyrimidin-6-yl)piperidin-1-yl)(4-methylmorpholin-2-yl)methanone], the IC50 in test [1] (setting [3]) was no more than 1000 nM; at SOS1 (setting [4]) it was less than 100 nM; on SOS1 (setting [7]), less than 50 nM; in test [2] (setting [5]), 1000 to 10000 nM.
Consider `CCN1CCN(c2cc3c(N[C@H](C)c4cccc(C(F)F)c4F)ncnc3nc2OC)CC1` [Compound 372, (R)-N-(1-(3-(difluoromethyl)-2-fluorophenyl)ethyl)-6-(4-ethylpiperazin-1-yl)-7-methoxypyrido[2,3-d]pyrimidin-4-amine], for which the IC50 in test [1] (setting [3]) is no more than 1000 nM; in test [1] (setting [6]) it was less than 500 nM; at SOS1 (setting [4]), less than 100 nM; in test [2] (setting [5]), no more than 1000 nM; in test [2] (setting [8]), less than 500 nM.

The values are drawn from patent US11648254B2 (Kumquat Biosciences Inc., priority 2021, dated 2023).
